The text below walks through data of patent publication US20170188607A1, “SOLUBILIZATION OF A SWEET MODULATOR AND FLAVOR” (Firmenich SA, priority 2014, published 2017).

SMILES strings stand for the structures.

The data set in a line: Supersaturation relative to the intrinsic solubility of the compound. The format is physicochemical. As to the method: A concentrated solution 1 of (S)-1-(3-(((4-amino-2,2-dioxido-1H-benzo[c][1,2,6]thiadiazin-5-yl)oxy)methyl)piperidin-1-yl)-3-methylbutan-1-one at 0.3% (w/w) (3000 ppm) was prepared in water. pH was adjusted to 11 using NaOH to form (S)-1-(3-(((4-amino-2,2-dioxido-1H-benzo[c][1,2,6]thiadiazin-5-yl)oxy)methyl)piperidin-1-yl)-3-methylbutan-1-one sodium salt and obtain an homogeneous solution. Next, a syrup was prepared by mixing an aqueous solution of High Fructose Corn Syrup (HFCS), citric acid and deionized water. The final syrup contained 34% fructose, 0.68% citric acid, 0.1% sodium citrate and 65.22% water, with a pH of 2. An aliquot of solution 1 was diluted 100 times with the syrup to yield a final concentration of 30 ppm of (S)-1-(3-(((4-amino-2,2-dioxido-1H-benzo[c][1,2,6]thiadiazin-5-yl)oxy)methyl)piperidin-1-yl)-3-methylbutan-1-one, i.e. about 18 times above the intrinsic solubility of the compound at 3° C. The sample was kept at 3° C. and the amount of (S)-1-(3-(((4-amino-2,2-dioxido-1H-benzo[c][1,2,6]thiadiazin-5-yl)oxy)methyl)piperidin-1-yl)-3-methylbutan-1-one was measured by UV spectroscopy as a function of time. The amount of (S)-1-(3-(((4-amino-2,2-dioxido-1H-benzo[c][1,2,6]thiadiazin-5-yl)oxy)methyl)piperidin-1-yl)-3-methylbutan-1-one was reduced to 28 ppm after 1 week and first crystals were visually observed. […]
A concentrated solution 1 of (S)-1-(3-(((4-amino-2,2-dioxido-1H-benzo[c][1,2,6]thiadiazin-5-yl)oxy)methyl)piperidin-1-yl)-3-methylbutan-1-one at […] was prepared in water. pH was adjusted to 11 using NaOH to form (S)-1-(3-(((4-amino-2,2-dioxido-1H-benzo[c][1,2,6]thiadiazin-5-yl)oxy)methyl)piperidin-1-yl)-3-methylbutan-1-one sodium salt and obtain an homogeneous solution. […] The sample was kept at 3° C. and the amount of (S)-1-(3-(((4-amino-2,2-dioxido-1H-benzo[c][1,2,6]thiadiazin-5-yl)oxy)methyl)piperidin-1-yl)-3-methylbutan-1-one was measured by UV spectroscopy as a function of time. […]

Take `CC(C)CC(=O)N1CCC[C@H](COc2cccc3c2C(N)=NS(=O)(=O)N3)C1` [(S)-1-(3-(((4-amino-2,2-dioxido-1H-benzo[c][1,2,6]thiadiazin-5-yl)oxy)methyl)piperidin-1-yl)-3-methylbutan-1-one]: the “times above the intrinsic solubility of the compound” value is, setting by setting: (final concentration of 18 ppm, at 3° C.) “about 11 times”; (final concentration of 30 ppm, at 3° C.) “about 18 times”; (final concentration of 100 ppm, at 20° C.) “about 15 times”.
